In data set [1] the target is T1, 5-HT1A receptor (Rattus norvegicus, UniProt P19327).
T1 sequence (P19327 1-422): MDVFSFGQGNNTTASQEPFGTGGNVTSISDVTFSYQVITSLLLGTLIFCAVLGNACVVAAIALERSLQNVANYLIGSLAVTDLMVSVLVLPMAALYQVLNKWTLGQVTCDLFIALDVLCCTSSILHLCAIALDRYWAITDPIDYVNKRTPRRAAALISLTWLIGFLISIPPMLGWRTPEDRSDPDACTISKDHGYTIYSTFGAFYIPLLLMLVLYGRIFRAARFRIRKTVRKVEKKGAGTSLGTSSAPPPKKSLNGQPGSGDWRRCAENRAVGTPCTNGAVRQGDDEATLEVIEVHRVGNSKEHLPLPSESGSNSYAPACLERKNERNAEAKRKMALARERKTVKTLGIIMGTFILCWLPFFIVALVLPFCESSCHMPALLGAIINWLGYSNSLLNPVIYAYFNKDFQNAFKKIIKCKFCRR
Kind of data set: 5HT1A receptor binding assay (3H-8-OH-DPAT, rat brain striatum membrane). Conditions: for IC50: cells marked ^a; for IC50 / inhibition at 10 µM: 3H-8-OH-DPAT, rat brain striatum membrane; for affinity for 5-HT1A receptor (in words): in vitro receptor binding assay; for inhibition at 10 µM: test compound final concentration 10^−5 M. The protocol: Incubation at 37° C. was conducted for 10 min, the weight of the tubes were adjusted using a balance after incubation. […] Centrifugation was conducted and repeated 3 times.

The target in data set [2] is T2, D3 receptor (Homo sapiens, UniProt P35462).
T2 construct: expressed in transfected cells; host or cells: HEK-293
Nature of the data set: D3 receptor assay ([3H]-Spiperone, HEK-293 cells). The conditions noted are these: for inhibition at 10 µM: final concentration 10 μmol/L, [3H]-Spiperone, HEK-293 cells; for affinity for D3 receptor (in words): in vitro receptor binding assay. It is filed as binding. The protocol: After the cells were centrifuged at 1000 rpm for 5 min, the supernatant was discarded, and the cell pellet was collected and stored in a −20° C. fridge for reservation. It was re-suspended with Tris-Cl (pH 7.4) in the assay.
Tris was divided into aliquots by Genetimes Technology Inc.
Competitive binding test for receptors: 20 μl of each of the test compounds and 20 μl of the radioactive ligand together with 160 μl of the receptor proteins were added into the reaction tubes, and the final concentrations of the test compound and the positive drug were all 10 μmol/L. After 50 min of incubation in 30° C. water bath, the tubes were immediately moved to ice bath to terminate the reactions. GF/C glass fiber filter papers were used for rapid sucking filtration on a Millipore cell sample collector, elution buffer (50 mM Tris-HCl, PH 7.4) was applied for 3 ml×3 times, and microwave was applied for 4-5 min for drying. The filter papers were moved into 0.5 ml centrifuge tubes, and 500 μl of lipid-soluble scintillation solution was added. The tubes were allowed to stand still for over 30 min in dark, and the intensities of radioactivity were measured by a counter.

Data set [3] deals with 5-HT2C receptor (Rattus norvegicus, UniProt P08909). Kind of data set: 5HT2C receptor binding assay ([3H]-mesulergine, rat brain striatum membrane). Conditions: for inhibition at 10 µM: test compound final concentration 10^−5 M, [3H]-mesulergine, rat brain striatum membrane, read-out: 5HT2C inhibition %.
Data set [4] has as its target dopamine D2 receptor (Rattus norvegicus, UniProt P61169). Nature of the data set: D2 receptor binding assay (3H-Spiperone, rat brain striatum membrane). The conditions noted are these: for affinity for D2 receptor (in words): in vitro receptor binding assay; for inhibition at 10 µM: read-out: D2 inhibition %.
Protocol: Rats were sacrificed by cervical dislocation on ice. Brain striatum was rapidly taken, and 2 brain striatums were combined into a centrifuge tube, to which 3 ml of buffer (0.05 M Tris-HCl buffer, containing NaCl 120 mM, KCl 5 mM, MgCl2 1 mM, CaCl2 1 mM) was added, homogenization was conducted for 3-4 s at level 4 for four times, and then 5 ml of buffer was then added. The weight of the homogenized tubes were adjusted using a balance, and centrifugation was conducted at 12000 r, 4° C. for 20 min. The supernatant was discarded, and 3 ml of buffer was added (0.05 M Tris-HCl buffer, containing NaCl 120 mM, KCl 5 mM, MgCl2 1 mM, CaCl2 1 mM). Vortex mixer was used for blending, and then 5 ml of buffer was added (0.05 M Tris-HCl buffer, containing NaCl 120 mM, KCl 5 mM, MgCl2 1 mM, CaCl2 1 mM). Centrifugation was conducted (repeated 3 times). After the centrifugations, the supernatant was discarded, and the pellets were stored at −80° C. for future use.
Beckman LS-6500 Multi-function Liquid Scintillation Counter was used.
(1) The prepared membrane was first applied with appropriate amount of homogenized liquid, and homogenizer was used for evenly dispersing. 15 tubes were mixed into a 100 ml container, and appropriate amount of homogenized liquid was added to give 50 ml of membrane suspension, which was reserved for future use.
(2) 100 μL of membrane preparation and 100 μL of buffer were added into each reaction tube.
(3) 100 μL of homogenized liquid was added into the total binding tube (TB), 100 μL of Butaclamol (final concentration 10^−5 M) was added into the non-specific binding tube (NB), and 100 μL of the test compound (final concentration 10^−5 M) was added into the specific binding tube (SB) for each compound.
(5) Each of the reaction tubes was incubated at 37° C. for 20 min. After the reaction was completed, the bound ligands were rapidly filtered under reduced pressure, and the ice-chilled assay buffer was used for adequate washing. The filter was taken out and put into a 3 ml scintillation vial, and 2 ml of toluene scintillation solution was added and blended.
(6) The scintillation vials were put into Liquid Scintillation Counter for counting. Inhibitory rate(1%)=(Total binding tube cpm−compound cpm)/(Total binding tube cpm−non-specific binding tube cpm)×100%
Each assay for the compounds was conducted in duplicate.
Data set [5] has as its target 5-HT2A receptor (Rattus norvegicus, UniProt P14842). Kind of data set: 5HT2A receptor binding assay ([3H]-Ketanserin, rat brain striatum membrane). Conditions: for IC50: cells marked ^a; for IC50 / inhibition at 10 µM: [3H]-Ketanserin, rat brain striatum membrane; for inhibition at 10 µM: test compound final concentration 10^−5 M, read-out: 5HT2A inhibition %.
Data set [6] deals with KM mice. Nature of the data set: Apomorphine induced clambering assay of mice. The data set is classed as in vivo. The conditions noted are these: for ED50: Mus musculus, po, apomorphine 1 mg/kg sc. On the procedure: Healthy KM mice (male, with body weight of 18-22 g) were provided by Qinglongshan Animal Cultivation Center, Nanjing.
Test positive drugs: haloperidol, clozapine, risperidone, olanzapine, aripiprazole, ziprasidone, quetiapine.
Apomorphine provided by Sigma Company was dissolved in 0.9% NaCl (containing 0.1% vitamin C) before use, and was freshly formulated before use.
Corresponding solvent double-distilled water was administered intragastrically to the negative control group and the model group, corresponding positive drugs were administered intragastrically to the positive drug groups (a small amount of acetic acid was first added and then double-distilled water was added when dissolving), and corresponding dosages of compounds were administered intragastrically to the compound groups for each dosage, with the volume for intragastric administration as 0.1 ml/10 g. 1 hour after the intragastric administration, apomorphine was subcutaneously injected (1 mg/kg), with the volume as 0.1 ml/10 g. After the injection of apomorphine, the mice were immediately put into the clambering cages. After 5 min of adaptation, the behaviors of the mice at 10-11, 20-21, and 30-31 min after the injection of apomorphine were observed and scored. Scoring criteria: 4 paws on the floor was scored as 0; 2 forepaws on the cage was scored as 1; and 4 paws on the cage was scored as 2.

A short description of data set [7]: in vivo. The conditions noted are these: both, mouse, po.
Protocol: KM mice (half male and half female) were randomly divided into several groups (with 2-5 mice in each group), which were respectively the 2000 mg/kg groups for each compound, and the solvent group. 0.2 ml/10 g were administered intragastrically. The death of the animals in 3 days were observed. (In the case 3 or more animals survived in 3 days without notable abnormity in their life states, the observation was continued until the assay was completed in 7 days. In the case 3 or more animals died in 3 days, the median lethal dose method was used to determine the LD50).
0.2 ml/10 g were administered intragastrically, and the death of the animals in 1-3 days were observed.
Data set [8] concerns mice of Kunming breed. Kind of data set: MK-801 induced high activity in mice. The data set is classed as in vivo. Conditions: compared to the model group. The protocol: Healthy mice of Kunming breed (with half male and half female, (20±2)g) were provided by Qinglongshan Animal Cultivation Center, Nanjing.
Subsequently, the spontaneous activities of the mice of each group in 90 min were measured.

5-HT2A receptor, sequence (P14842 whole entry): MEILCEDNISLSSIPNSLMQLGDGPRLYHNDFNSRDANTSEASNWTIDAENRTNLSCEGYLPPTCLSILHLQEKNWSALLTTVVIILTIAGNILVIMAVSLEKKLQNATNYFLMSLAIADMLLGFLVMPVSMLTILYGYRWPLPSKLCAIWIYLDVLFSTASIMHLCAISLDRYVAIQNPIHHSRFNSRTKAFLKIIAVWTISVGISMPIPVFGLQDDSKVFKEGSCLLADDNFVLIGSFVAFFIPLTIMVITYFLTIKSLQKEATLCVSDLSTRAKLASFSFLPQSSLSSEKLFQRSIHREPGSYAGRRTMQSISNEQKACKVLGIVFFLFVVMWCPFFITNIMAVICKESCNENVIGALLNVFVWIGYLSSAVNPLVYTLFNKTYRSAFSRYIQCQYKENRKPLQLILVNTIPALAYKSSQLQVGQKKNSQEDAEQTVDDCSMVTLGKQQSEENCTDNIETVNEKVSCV
T2 sequence (P35462 whole entry): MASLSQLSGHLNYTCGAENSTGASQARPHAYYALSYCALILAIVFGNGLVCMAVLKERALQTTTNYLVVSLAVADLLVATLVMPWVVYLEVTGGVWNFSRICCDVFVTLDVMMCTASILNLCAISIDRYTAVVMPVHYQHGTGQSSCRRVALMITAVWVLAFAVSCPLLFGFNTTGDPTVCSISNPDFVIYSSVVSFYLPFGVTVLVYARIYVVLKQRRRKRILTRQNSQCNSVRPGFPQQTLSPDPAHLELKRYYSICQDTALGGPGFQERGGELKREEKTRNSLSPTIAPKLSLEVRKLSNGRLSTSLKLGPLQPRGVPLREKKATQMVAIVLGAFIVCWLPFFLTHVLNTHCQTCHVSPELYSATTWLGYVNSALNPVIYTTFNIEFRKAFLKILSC
dopamine D2 receptor, sequence (P61169 whole entry): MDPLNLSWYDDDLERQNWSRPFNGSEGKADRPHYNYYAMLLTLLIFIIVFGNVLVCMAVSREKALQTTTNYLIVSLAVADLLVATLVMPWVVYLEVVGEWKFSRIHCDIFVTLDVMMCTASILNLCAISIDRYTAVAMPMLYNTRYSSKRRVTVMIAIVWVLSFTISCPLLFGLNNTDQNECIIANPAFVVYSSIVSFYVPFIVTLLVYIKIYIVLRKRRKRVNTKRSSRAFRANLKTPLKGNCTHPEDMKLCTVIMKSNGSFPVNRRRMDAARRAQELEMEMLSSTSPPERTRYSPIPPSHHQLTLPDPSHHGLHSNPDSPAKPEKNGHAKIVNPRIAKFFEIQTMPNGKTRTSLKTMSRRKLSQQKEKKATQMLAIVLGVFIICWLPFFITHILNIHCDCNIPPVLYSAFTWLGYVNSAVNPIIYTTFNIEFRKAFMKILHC
5-HT2C receptor, sequence (P08909 33-460): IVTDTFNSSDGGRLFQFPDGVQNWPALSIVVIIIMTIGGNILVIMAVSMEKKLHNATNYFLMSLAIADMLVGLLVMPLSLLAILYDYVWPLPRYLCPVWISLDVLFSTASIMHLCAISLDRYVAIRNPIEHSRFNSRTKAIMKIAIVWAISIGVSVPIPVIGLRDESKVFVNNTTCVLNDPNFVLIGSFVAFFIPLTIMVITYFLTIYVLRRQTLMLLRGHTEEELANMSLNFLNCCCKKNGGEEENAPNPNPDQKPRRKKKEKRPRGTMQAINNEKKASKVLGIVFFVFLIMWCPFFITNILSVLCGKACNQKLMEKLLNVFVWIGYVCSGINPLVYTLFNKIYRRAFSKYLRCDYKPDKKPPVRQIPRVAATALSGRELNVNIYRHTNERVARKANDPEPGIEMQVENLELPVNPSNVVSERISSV

`O=c1cc(-c2ccccc2)c2ccc(OCCCN3CCN(c4nsc5ccccc45)CC3)cc2o1` [Compound 12, 7-(3-(4-(3-(1,2-benzisothiazole)-1-piperazinyl)-n-propoxy))-4-phenyl-2H-benzopyran-2-one]: in data set [1], the 50% inhibitory concentration (IC50) was found to be 127 nM and the “affinity for 5-HT1A receptor (in words)” value was “relatively stronger affinities”. Also, in [2], the inhibition at 10 µM was found to be 103% and the “affinity for D3 receptor (in words)” value is “relatively stronger affinities”. For the same molecule, in data set [3], the “affinity for 5-HT2C receptor (in words)” value is given as “lower affinities” and the inhibition at 10 µM came out at 93.4%. Besides, in data set [4], the “affinity for D2 receptor (in words)” value is on record as “relatively stronger affinities” and the inhibition at 10 µM is 124%. Besides, in data set [5], the “affinity for 5-HT2A receptor (in words)” value is “relatively stronger affinities” and the half-maximal inhibitory concentration (IC50) came out at 9.26 nM.
Regarding `O=c1cc(C(F)(F)F)c2ccc(OCCCCN3CCN(c4nsc5ccccc45)CC3)cc2o1` [Compound 18, 7-(4-(4-(3-(1,2-benzisothiazole)-1-piperazinyl)-n-butoxy))-4-(trifluoromethyl)-2H-benzopyran-2-one], the melting point fell in the range of 93 to 95 °C. Also, in [1], the 50% inhibitory concentration (IC50) stood at 6.19 nM and the “affinity for 5-HT1A receptor (in words)” value is given as “relatively stronger affinities”. In data set [2], the inhibition at 10 µM stood at 103% and the “affinity for D3 receptor (in words)” value is “relatively stronger affinities”. In addition, in data set [3], the “affinity for 5-HT2C receptor (in words)” value is “lower affinities” and the inhibition at 10 µM is 77.6%. Moreover, in data set [4], the “affinity for D2 receptor (in words)” value is recorded as “relatively stronger affinities” and the inhibition at 10 µM is 113%. In addition, in data set [5], the “affinity for 5-HT2A receptor (in words)” value was “relatively stronger affinities” and the IC50 worked out at 0.79 nM.
In the case of `Cc1cc(=O)oc2c(Cl)c(OCCCN3CCN(c4nsc5ccccc45)CC3)ccc12` [Compound 22, 7-(3-(4-(3-(1,2-benzisothiazole)-1-piperazinyl)-n-propoxy))-4-methyl-8-chloro-2H-benzopyran-2-one], the melting point lay within 162 to 164 °C. For the same molecule, in data set [1], the 50% inhibitory concentration (IC50) came out at 12.8 nM and the “affinity for 5-HT1A receptor (in words)” value was “relatively stronger affinities”. For the same molecule, in [2], the inhibition at 10 µM came to 104% and the “affinity for D3 receptor (in words)” value was “relatively stronger affinities”. Besides, in [3], the “affinity for 5-HT2C receptor (in words)” value is listed as “lower affinities” and the inhibition at 10 µM came to 99.8%. Moreover, in data set [4], the “affinity for D2 receptor (in words)” value is recorded as “relatively stronger affinities” and the inhibition at 10 µM was 112%. Moreover, in [5], the “affinity for 5-HT2A receptor (in words)” value is recorded as “relatively stronger affinities” and the IC50 was found to be 6.88 nM.
`CCc1cc(=O)oc2cc(OCCCCN3CCN(c4nsc5ccccc45)CC3)ccc12` [Compound 28, 7-(4-(4-(3-(1,2-benzisothiazole)-1-piperazinyl)-n-butoxy))-4-ethyl-2H-benzopyran-2-one]: the melting point lay in the range of 110 to 112 °C. The inhibition at 10 µM in [1] was 11%. Further, the inhibition at 10 µM in [4] stood at 58.8%. The inhibition at 10 µM in data set [5] came out at 56.1%.
The molecule `Cc1c(C)c2ccc(OCCCCN3CCC(c4noc5cc(F)ccc45)CC3)cc2oc1=O` [Compound 29, 7-(4-(4-(3-(6-fluoro-benzisoxazole)-1-piperidyl)-n-butoxy))-3,4-dimethyl-2H-benzopyran-2-one] displayed a melting point of 106 to 108 °C. The inhibition at 10 µM in data set [1] is 97.1%. In addition, the inhibition at 10 µM in data set [4] was 43.2%. In addition, the inhibition at 10 µM in data set [5] is 24.7%.
In the case of `O=c1cc(CO)c2ccc(OCCCN3CCC(c4noc5cc(F)ccc45)CC3)cc2o1` [Compound 30, 7-(3-(4-(3-(6-fluoro-benzisoxazole)-1-piperidyl)-n-propoxy))-4-hydroxymethyl-2H-benzopyran-2-one], the melting point lay within 144 to 146 °C. In addition, the inhibition at 10 µM in [1] came to 82.8%. In data set [4], the inhibition at 10 µM was found to be 20.3%. In [5], the inhibition at 10 µM was found to be 98.5%.
`O=c1cc(CO)c2ccc(OCCCCN3CCC(c4noc5cc(F)ccc45)CC3)cc2o1` [Compound 31, 7-(4-(4-(3-(6-fluoro-benzisoxazole)-1-piperidyl)-n-butoxy))-4-hydroxymethyl-2H-benzopyran-2-one]: the melting point lay within 160 to 162 °C. Besides, in data set [1], the inhibition at 10 µM worked out at 63.9%. Besides, in [4], the inhibition at 10 µM was found to be 2.4%. Further, in data set [5], the inhibition at 10 µM is 1.8%.
The molecule `Cc1cc(=O)oc2cc(OCC(O)CN3CCC(c4noc5cc(F)ccc45)CC3)ccc12` (stereo not shown) [Compound 32, 7-(3-(4-(3-(6-fluoro-benzisoxazole)-1-piperidyl)-2-hydroxylpropoxy))-4-methyl-2H-benzopyran-2-one] displayed a melting point of 183 to 185 °C. The inhibition at 10 µM in data set [1] came to 103%. The inhibition at 10 µM in data set [4] was found to be 62.6%. In addition, the inhibition at 10 µM in [5] was 157%.
Regarding `O=c1cc(-c2ccccc2)c2ccc(OCC(O)CN3CCC(c4noc5cc(F)ccc45)CC3)cc2o1` (stereo not shown) [Compound 33, 7-(3-(4-(3-(6-fluoro-benzisoxazole)-1-piperidyl)-2-hydroxylpropoxy))-4-phenyl-2H-benzopyran-2-one], the melting point is 193 to 195 °C. For the same molecule, the inhibition at 10 µM in data set [1] is 23.5%. Also, the inhibition at 10 µM in data set [4] stood at 110%. For the same molecule, the inhibition at 10 µM in [5] amounted to 129%.
`Cc1cc2c(s1)Nc1ccccc1N=C2N1CCN(C)CC1` [olanzapine, reference compound]: the ED50 in [6] worked out at 0.11 mg/kg.
`Cc1nc2n(c(=O)c1CCN1CCC(c3noc4cc(F)ccc34)CC1)CCCC2` [risperidone, reference compound]: the LD50 in [7] was 82.1 mg/kg. Further, the “improvement of MK-801 induced high activity (in words)” value in [8] was “significantly improve”. Further, in data set [6], the “improvement of apomorphine induced clambering symptoms (in words)” value is listed as “effectively improve” and the ED50 was 0.015 mg/kg.

A word on the IC50: it is the concentration needed to halve the response being measured. The low end stands for greater potency in that assay, the high end for weaker potency in that assay. What is called inhibition is the drop in the measured response relative to a control, in per cent. A word on the melting point: it is the temperature of the solid-liquid transition. Broadly, the ED50 is the dose that gives a 50% effect, or the effect in half of the subjects. As usually defined, the LD50 is the dose expected to kill half of the subjects tested. Read a high LD50 as a less toxic substance.

For the origin of these results see patent US9315496B2, “Benzopyrone derivative and use thereof” (HUAZHONG UNIVERSITY OF SCIENCE & TECHNOLOGY, priority 2011, dated 2016).
